Measurements taken from article PMC5458078, “Global mapping of CARM1 substrates defines enzyme specificity and substrate recognition” (Nature Communications, 2017).

system: MCF7 cells; test: Quantitative nanoLC-MS/MS (TMT) of ADMA-containing peptides, CARM1 KO vs parental; format: cell-based, human; design: Fold change KO/WT: scale not given here; conditions: ADMA-containing peptide, CARM1 knockout (KO) vs wild type (WT) MCF7 cells; 6-plex TMT experiment #1; three biological replicates each; sheet "MCF7"

Substance | Fold change KO/WT
GrGSLLLR | 1.1394
LAMDFGGAGAAQQGLTDSCQSGGVPTAVQNLAPrAAVAAAAPrAVAPYK | -4.352
LGrLLGIFEQNQDRKHR | -0.4775
LHPQLHrAPIR | 1.076
LLALSGPGGGrGrGSLLLR | 0.2339

same assay, conditions: ADMA-containing peptide, MCF7, CARM1 knockout (KO1-3) vs wild type (WT1-3), TMT 6-plex experiment #1

Substance | Fold change KO/WT
GVVNTAVSAAVQAVrGrGrGTLTr | -0.6248
GrGTLTrGAFVGATAAPGYIAPGYGTPYGYSTAAPAYGLPK | 0.06714
HQQLQQMrMQQPPAPVPTTTTTTQQHPrQAAPQMLQQQPPrLISVQTMQR | -1.659
ITVPrLSVGSVTSrPSTPTLGTPTPQTMSVSTK | -2.222
LAQDPYrLGHDPYR | -0.6293
LFHLPEYTWrLPCGGVR | -2.1298
LGHDAYrLGQDPYR | -1.081
LGHDAYrLGQDPYrLGHDPYR | -1.784
LGHDPYrLGHDAYrLGQDPYrLGHDPYR | -1.602
LGQDPYrLGHDPYR | -1.973
LINFQNHSPKPNGPVLPPHPQQLrYPPNQNIPR | 0.6311
LINFQNHSPKPNGPVLPPHPQQLrYPPNQNIPrQAIKPNPLQMAFLAQQAIK | -2.471
LITFQLrHILK | -5.219

same assay, conditions: CARM1 KO vs wild type MCF7 cells, 3 biological replicates each

Substance | Fold change KO/WT
GSGTGIYSNAAPPPVTYQGNLYrPLLR | -2.788
GTPGPPPAHGAALQPHPrVNFCPLPSEQCYQAPGGPEDR | -0.7925
GrGALLQDICK | 0.3016
HASErGHLR | 1.422
HQQLQQMrMQQPPAPVPTTTTTTQQHPrQAAPQMLQQQPPrLISVQTMQR | -1.574
IPGIPrHSGPQYSMMQPHLQR | -0.5283
KVPQPCSSATLNrLTVPrYSIPTGDPPPYPEIASQLAQGR | -4.368
KYPLPPPSGrYNWN | -1.439
LAQNAArIPGIPrHSGPQYSMMQPHLQR | -2.189

same assay, conditions: MCF7, CARM1 KO (KO1-KO3) vs wild type (WT1-WT3)

Substance | Fold change KO/WT
GTVVTPVQVPLLPVPSQPrPAVGPQrFPGPPEFPQHTPGPVPNSFSQPPrLPLQDQWrAPPPPQDR | -3.321
IAQPVrSFLQPPKPLSSLSTLR | -2.977
KPLPLGVrAPLAGPSAAAR | -2.562
LIAAAQSGLPVrIESIK | -0.4316

same assay, conditions: MCF7, CARM1 KO vs WT, three biological replicates each

Substance | Fold change KO/WT
INPLPGGrNFSGTASTSLLGPPPGLLTPPVATELSQNAR | -2.627
IPYPAGTLPNPLLPHPLHENEVLrHQLFAAPYR | -1.146
KDLYANTVLSGGSTMYPGIADr | -0.3193
LEPPLTPrCPLDFAPQTLSFPYAR | -5.801
LGRPIGALArGAIGGR | 0.325

same assay, conditions: MCF7, CARM1 knockout vs wild type, n = 3 each

Substance | Fold change KO/WT
GrFPGAVPGGDrFPGPAGPGGPPPPFPGNLIK | -2.782
GrGFAGVCGFGGPYGETVATGPYrAFR | -1.965
KLFIGGLSFETTDDSLr | -0.1026
KPLGTAPHCPrLPLR | -3.016
KPLGTAPHCPrLPLRK | -4.08
KPPNQSLPLQPFQLAFGHQVNrQVFrQGPPPPNPVAAFPPQK | -3.229
LFIGGLSFETTDDSLr | -0.1032
LHrSPLTFPAWVrPPEAAR | -1.489
LLFQNLWKPrLNVP | -4.157

same assay, conditions: MCF7 CARM1 knockout vs wild type, 3 biological replicates each; values are on log2 scale

Substance | Fold change KO/WT
GSQDSPAVPHPGPLQHWQPENVNQAFTrPPPPYPGNIrSPVAPPLGPrYAVFPK | -2.234
GSRLPLALPPASQGCSSGGGGGGGGGSSAGGSGNSrPPR | -0.9721
GVGPPrGALVrGTPVrGAITR | -0.04858
GVVDSDDLPLNVSr | -0.9856
HSAYSYCGrGFYPQYGALETrGGFNPR | -0.3157
ISSSSFSrVGSSNFR | -3.151
KSTLKPQPAPQAGPIPVAPIGTLKPQPQPVPASYTTASTSSrPTFNVQVK | -3.309

system: MCF7 CARM1 KO cells; test: Quantitative MS of ADMA-containing peptides in MCF7 CARM1 KO cells expressing CARM1 28-608 or CARM1 140-608, and in CARM1 KO; format: cell-based, human; conditions: not given

Substance | CARM1 140-608/WT | KO/WT
ISSSSFSrVGSSNFR | -2.763 | -3.151
LAQDPYrLGHDPYR | -0.7785 | -0.6293
LGHDAYrLGQDPYR | -1.007 | -1.081
LGHDAYrLGQDPYrLGHDPYR | -1.958 | -1.784
LGHDPYrLGHDAYrLGQDPYrLGHDPYR | -1.775 | -1.602
LGQDPYrLGHDPYR | -1.933 | -1.973

same assay, conditions: CARM1 140-608 versus WT, difference of mean log2 values

Substance | CARM1 140-608/WT
GSGTGIYSNAAPPPVTYQGNLYrPLLR | 1.554
GTPGPPPAHGAALQPHPrVNFCPLPSEQCYQAPGGPEDR | -1.327
GrGALLQDICK | 0.1138
HASErGHLR | 0.2697
HQQLQQMrMQQPPAPVPTTTTTTQQHPrQAAPQMLQQQPPrLISVQTMQR | -0.9301
IPGIPrHSGPQYSMMQPHLQR | 1.323
KVPQPCSSATLNrLTVPrYSIPTGDPPPYPEIASQLAQGR | -2.332
KYPLPPPSGrYNWN | -1.833
LAQNAArIPGIPrHSGPQYSMMQPHLQR | -0.4462
LINFQNHSPKPNGPVLPPHPQQLrYPPNQNIPR | 0.3327
LINFQNHSPKPNGPVLPPHPQQLrYPPNQNIPrQAIKPNPLQMAFLAQQAIK | 0.7941
LITFQLrHILK | -4.254

same assay, conditions: CARM1 140-608 versus WT, mean of three replicates (log2)

Substance | CARM1 140-608/WT
GrGSLLLR | 0.6421
LAMDFGGAGAAQQGLTDSCQSGGVPTAVQNLAPrAAVAAAAPrAVAPYK | -1.57
LGrLLGIFEQNQDRKHR | -0.3444
LHPQLHrAPIR | -0.07051
LLALSGPGGGrGrGSLLLR | -0.3383

same assay, conditions: CARM1 140-608 vs WT, mean of 3 replicates (log2 scale)

Substance | CARM1 140-608/WT
GTVVTPVQVPLLPVPSQPrPAVGPQrFPGPPEFPQHTPGPVPNSFSQPPrLPLQDQWrAPPPPQDR | -1.653
IAQPVrSFLQPPKPLSSLSTLR | -1.679
KPLPLGVrAPLAGPSAAAR | -2.373
LIAAAQSGLPVrIESIK | -0.3613

same assay, conditions: CARM1 140-608 vs WT, mean of 3 replicates, log2

Substance | CARM1 140-608/WT
INPLPGGrNFSGTASTSLLGPPPGLLTPPVATELSQNAR | -1.005
IPYPAGTLPNPLLPHPLHENEVLrHQLFAAPYR | -0.5059
KDLYANTVLSGGSTMYPGIADr | -0.3764
LEPPLTPrCPLDFAPQTLSFPYAR | -2.973

same assay, conditions: CARM1 KO versus WT, difference of mean log2 values

Substance | KO/WT
GSGTGIYSNAAPPPVTYQGNLYrPLLR | -1.424
GTPGPPPAHGAALQPHPrVNFCPLPSEQCYQAPGGPEDR | -0.7925
GrGALLQDICK | -0.96
HASErGHLR | 1.422
HQQLQQMrMQQPPAPVPTTTTTTQQHPrQAAPQMLQQQPPrLISVQTMQR | -2.355
IPGIPrHSGPQYSMMQPHLQR | -0.1608
KVPQPCSSATLNrLTVPrYSIPTGDPPPYPEIASQLAQGR | -4.368
KYPLPPPSGrYNWN | -2.65
LAQNAArIPGIPrHSGPQYSMMQPHLQR | -2.068
LINFQNHSPKPNGPVLPPHPQQLrYPPNQNIPR | 0.1723
LINFQNHSPKPNGPVLPPHPQQLrYPPNQNIPrQAIKPNPLQMAFLAQQAIK | -2.136
LITFQLrHILK | -5.219

same assay, conditions: KO versus WT, mean of three replicates (log2)

Substance | KO/WT
GrGSLLLR | 1.1394
LAMDFGGAGAAQQGLTDSCQSGGVPTAVQNLAPrAAVAAAAPrAVAPYK | -4.352
LGrLLGIFEQNQDRKHR | -0.4775
LHPQLHrAPIR | 1.076
LLALSGPGGGrGrGSLLLR | -0.09674

same assay, conditions: KO vs WT, mean of 3 replicates (log2 scale)

Substance | KO/WT
GTVVTPVQVPLLPVPSQPrPAVGPQrFPGPPEFPQHTPGPVPNSFSQPPrLPLQDQWrAPPPPQDR | -3.712
IAQPVrSFLQPPKPLSSLSTLR | -2.977
KPLPLGVrAPLAGPSAAAR | -2.562
LIAAAQSGLPVrIESIK | -0.4316

same assay, conditions: KO vs WT, mean of 3 replicates, log2

Substance | KO/WT
INPLPGGrNFSGTASTSLLGPPPGLLTPPVATELSQNAR | -2.627
IPYPAGTLPNPLLPHPLHENEVLrHQLFAAPYR | -1.312
KDLYANTVLSGGSTMYPGIADr | -0.3193
LEPPLTPrCPLDFAPQTLSFPYAR | -5.801

same assay, conditions: difference of log2 means, CARM1 140-608 vs WT

Substance | CARM1 140-608/WT
GSQDSPAVPHPGPLQHWQPENVNQAFTrPPPPYPGNIrSPVAPPLGPrYAVFPK | -1.013
KSTLKPQPAPQAGPIPVAPIGTLKPQPQPVPASYTTASTSSrPTFNVQVK | -2.692

same assay, conditions: difference of log2 means, KO vs WT

Substance | KO/WT
GSQDSPAVPHPGPLQHWQPENVNQAFTrPPPPYPGNIrSPVAPPLGPrYAVFPK | -2.722
KSTLKPQPAPQAGPIPVAPIGTLKPQPQPVPASYTTASTSSrPTFNVQVK | -3.309

same assay, conditions: log2 scale ratio, mean of n = 3

Substance | CARM1 140-608/WT | KO/WT
GVVNTAVSAAVQAVrGrGrGTLTr | -0.4677 | -0.6727
GrGTLTrGAFVGATAAPGYIAPGYGTPYGYSTAAPAYGLPK | -0.05087 | 0.2558
ITVPrLSVGSVTSrPSTPTLGTPTPQTMSVSTK | -1.745 | -2.222
LFHLPEYTWrLPCGGVR | 0.09104 | -2.175

same assay, conditions: mean, CARM1 140-608 versus WT (log2 scale)

Substance | CARM1 140-608/WT
GSRLPLALPPASQGCSSGGGGGGGGGSSAGGSGNSrPPR | -0.7656
GVGPPrGALVrGTPVrGAITR | 0.2467
GVVDSDDLPLNVSr | -0.04605
HSAYSYCGrGFYPQYGALETrGGFNPR | -0.5986
KLFIGGLSFETTDDSLr | -0.2797
KPLGTAPHCPrLPLR | -2.281
KPLGTAPHCPrLPLRK | -2.5902
LFIGGLSFETTDDSLr | -0.1871

same assay, conditions: mean, CARM1 KO versus WT (log2 scale)

Substance | KO/WT
GSRLPLALPPASQGCSSGGGGGGGGGSSAGGSGNSrPPR | -0.9721
GVGPPrGALVrGTPVrGAITR | 0.3361
GVVDSDDLPLNVSr | -1.284
HSAYSYCGrGFYPQYGALETrGGFNPR | -0.0486
KLFIGGLSFETTDDSLr | 0.2164
KPLGTAPHCPrLPLR | -3.016
KPLGTAPHCPrLPLRK | -4.08
LFIGGLSFETTDDSLr | 0.1666

same assay, conditions: ratio on log2 scale, mean of 3 replicates

Substance | CARM1 140-608/WT | KO/WT
GrFPGAVPGGDrFPGPAGPGGPPPPFPGNLIK | -1.24 | -2.782
GrGFAGVCGFGGPYGETVATGPYrAFR | -1.219 | -1.965
KPPNQSLPLQPFQLAFGHQVNrQVFrQGPPPPNPVAAFPPQK | -2.162 | -3.229
LGRPIGALArGAIGGR | 0.09518 | 1.211
LHrSPLTFPAWVrPPEAAR | -1.436 | -1.489
LLFQNLWKPrLNVP | -1.893 | -4.858
